Test results: article PMC5622107, “Small molecule inhibition of cGAS reduces interferon expression in primary macrophages from autoimmune mice” (Nature Communications, 2017)
Entries after “also recorded” stand apart in the source; their conditions may differ.

Key:
45-bp dsDNA = assay: DNA intercalation: acridine orange displacement from dsDNA by fluorescence polarization; format: binding
Method in brief: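 Acridine orange displacement from 45-bp dsDNA in HEN buffer (10 mM HEPES pH 7.5, 1 mM EDTA, 100 mM NaCl), compounds at 30 µM final, 30 min incubation. Fluorescence polarization read in mP, buffer-corrected, G-factor 1.0; mitoxantrone 50 µM and DMSO as controls.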

[1] = test system: RAW macrophage cells stimulated with 5′ppp-HP20 RNA, Pam3CSK4, poly(I:C), LPS or recombinant Ifnb; assay: Selectivity: RAW macrophages stimulated with non-DNA immunogenic ligands (luciferase reporter or Il-6 qRT-PCR); format: cell-based, mouse
Protocol: (§1) The sequence and annealing conditions of the dsDNA used is described above. Typically, 0.4 µg or 0.6 µg of dsDNA was used to stimulate RAW-Lucia ISG-KO-TREX1/ISG-KO-cGAS or RAW-Lucia ISG cells, respectively, which equated to 90% of maximal luciferase activity observed. dsDNA stimulation of RAW macrophages and subsequent luciferase measurements were performed with or without the addition of small molecules at indicated concentrations in each figure, or with DMSO as vehicle control. For the dose curve experiments, serial dilutions of inhibitors were applied to 6.7 × 10^5 cells, plated in 24-well dishes, and co-stimulated with 0.4 µg of dsDNA. In subsequent experiments using inhibitors in RAW cells, the small molecules were used at concentrations representing the derived EC75 values, while co-stimulated with one of the following: 0.4 µg dsDNA, 50 nM 5′ppp-HP20 hairpin RNA (a kind gift from Dr Anna Pyle, Yale University; sequence located in Supplementary Table 5), 10 µM cGAMP, or 100 U ml^−1 murine recombinant Ifnb (R&D Systems). dsDNA was transfected using Lipofectamine LTX. 5′ppp-HP20 RNA was transfected using Lipofectamine 2000. Cells were harvested 24 h post-transfection, washed with PBS, and lysed in 1× Luciferase Cell Lysis Buffer (Pierce).
The minimum numbers of biological and technical replicates for the luciferase assays were two and three, respectively. Analysis of luminescence values were evaluated for outliers (one standard deviation above and below the mean) for each biological replicate, and the resulting means were used to generate graphs in GraphPad Prism (v. 7.0c); where applicable, an unpaired t-test with Welch’s correction was used to compare the results of each individual compound to dsDNA or other stimulant. The experimental variances observed within control samples (untreated or vehicle) and treated samples were similar.
The small molecules were used at concentrations representing the EC75 values and were co-stimulated with either 200 ng Pam3CSK4 (Invivogen), 25 µg poly(I:C) or 100 ng lipopolysaccharide (Sigma-Aldrich) at the cell counts and conditions previously described for the cellular luciferase assays. Cells were harvested 24 h post-transfection, washed with PBS, and RNA was extracted using Trizol (Ambion) and chloroform (Sigma-Aldrich). In all, 1–2 µg of total RNA was reverse-transcribed using random hex primers and SuperScript III (Life Technologies) into cDNA. […] The expression of mRNAs […] murine Actb1 and Il-6 were measured (see Supplementary Table 5 for primer sequences used). Target C T values were normalized to Actb1 C T values and used to calculate ΔC T. mRNA expression of target genes were then calculated using the ΔΔC T method (2^ΔΔCT). Expression values were analyzed as described in the method for cellular luciferase assays.

[2] = test system: BMDM cells from Trex1 −/− mice; assay: IFNB1 expression by qRT-PCR in BMDMs from Trex1 −/− mice; format: cell-based, mouse; conditions: 24 h treatment at IC50, qRT-PCR
Source text: C57BL/6 wild type and Trex1 ^−/− offspring from Trex1 ^+/− crosses (a kind gift from Dr Dan Stetson, University of Washington) were harvested at 6–8 weeks of age. Femurs and tibias were removed from age- and sex-matched mice. The ends were clipped and marrow pushed from bones via syringe. Clumps were broken apart via pipetting, rinsed, and pelleted in PBS, passed through a cell strainer, and plated in seven 100 mm petri dishes per mouse. Cells were matured in media described under the methods for cell lines with an additional 10 ng ml^−1 M-CSF (for a total of 20 ng ml^−1 M-CSF during the maturation period). On Day 7, cells were counted and re-plated at 5 × 10^5 cells ml^−1 in 100 mm petri dishes. BMDMs were maintained by adding an equal volume of media to each dish every 2 days after harvesting and performing a complete media change every 4 days after harvesting. IACUC protocols for humane termination of mice for Vanderbilt University were strictly followed.
BMDMs were incubated in the presence of DMSO or the various inhibitors, then harvested 24 h later. RNA was extracted using Trizol and chloroform. […] Real-time PCR against murine Actb1 and IFNB1 (see Supplementary Table 5 for primer sequences used) was carried out and the data was analyzed as previously described in the method section for cytokine analysis in RAW macrophages.

[3] = test system: RAW KO-cGAS reporter cells; assay: RAW KO-cGAS reporter cells stimulated with cGAMP; format: cell-based, mouse
Protocol: as §1

Row | Compound | % intercalation at 30 µM (45-bp dsDNA; Supplementary Table 2, acridine orange displacement compared to mitoxantrone) | Polarization (45-bp dsDNA; Supplementary Table 2, compound 30 µM) | Il-6 mRNA expression ([1]; cells activated by Pam3CSK4, poly(I:C), or LPS, qRT-PCR) | IFNB1 expression [2] | inhibition of reporter activity [3] | DNA intercalation or interaction (45-bp dsDNA; acridine orange competition screen) | inhibition of cells stimulated with recombinant Ifnb ([1]; JAK/STAT signaling, luciferase reporter) | suppression of activation by immunogenic stimuli other than dsDNA ([1]; compound at EC75, 5′ppp-HP20 RNA, Pam3CSK4, poly(I:C), LPS, Ifnb, listed as RU.521)
1 | Cc1nn(-c2nc3ccccc3[nH]2)c(O)c1C1OC(=O)c2ccccc21 (centres unmarked) [RU166365] | -6.7% | 264 mP | increased Il-6 messenger RNA (mRNA) expression |  |  |  |  | 
2 | Cc1nn(-c2nc3ccc(Cl)c(Cl)c3[nH]2)c(O)c1C1OC(=O)c2ccccc21 (centres unmarked) [RU320521, 3-[1-(6,7-dichloro-1H-benzimidazol-2-yl)-5-hydroxy-3-methyl-pyrazol-4-yl]-3H-isobenzofuran-1-one] |  |  |  | reduced IFNB1 expression | did not show any significant inhibition of reporter activity | did not show any indication that it could act in a manner that could intercalate or interact with DNA | did not inhibit | unable to potently suppress activation; also recorded: little to no inhibitory effects
